# Experimental data reported in patent US12325715B2, “Fluorous metal chelates compositions” (The Regents of the University of California, priority 2018, dated 2025).
# Columns and labels:
# [1] = Intramolecular 19F NMR relaxation rates at 9.4 T; format: physicochemical; details: 5 CF2 groups (precursors and Ga3+ chelate), ± s.e.m.
# Text: Intramolecular ^19F NMR relaxometry measurements of 5a isomers further confirmed the structural analyses. We observed that among Fe3+ chelates, 5a OOO isomer had the highest, and 5a PPP isomer had the lowest, R1 and R2 values (Table 3). Ortho-substitution caused a more drastic intramolecular PRE, by ˜3 orders of magnitude, compared to para-substitution due to the closer proximity of the Fe3+ paramagnetic center to the ortho position ([…]) compared to the para position ([…]).
# NMR spectra and relaxation rates were recorded on a Bruker Ascend 400 MHz (9.4 T) spectrometer (Billerica, MA). Additional relaxation rate measurements were performed at 3 T using a GE750 (General Electric, Milwaukee, WI) clinical MRI system equipped with a custom dual-channel ^19F/1H 72 mm diameter volume coil (RAPID Biomedical, Rimpar, Germany). The ^19F NMR spectra were referenced to an internal standard, sodium trifluoroacetate (NaTFA, 0.1 wt %, −76.00 ppm, Sigma-Aldrich, T6508), which was placed in a separate sealed capillary tube within the NMR tube. Relaxation measurements were performed using a standard inversion recovery pulse sequence and a Carr-Purcell-Meiboom-Gill sequence with echo-time (TE) values in 12 linear increments. The T1 and T2 values were obtained by nonlinear fitting using MNova 6.0.2 software (Mestrelab, Escondido, CA). Fit errors were less than 5% of T1 and T2 values. For quantitative peak measurements, spectra were acquired using calibrated 90° pulses, 32,000 complex points, spectral window 0 to −200 ppm, relaxation delay 2.5 s, and 128 averages. Spectra were processed in MNova with manual phase correction and Whittaker smoother baseline correction (filter=1 ppm). Relaxation parameters were measured for six middle CF2 peaks of PFOB, spanning ˜10 ppm, which account for 12 out of 17 F atoms in the molecule. To assay nanoemulsion uptake (^19F/cell) using NMR, an aliquot of 1×10^6 cells were pelleted and resuspended in 0.1 mL of lysis solution (0.5% Triton X, 100 mM NaCl, 20 mM Tris, 1 mM EDTA) and reference compound NaTFA (0.745 mg/mL)/D2O was added to 5 mm NMR tube. The integrated ratio of PFOB fluorine peaks to NaTFA singlet fluorine peak at −76.00 ppm determined the amount of ^19F in the cell pellet and the ^19F/cell was calculated.
# (§1) NMR measurements. NMR spectra and relaxation rates were recorded on a Bruker Ascend 400 MHz (9.4 T) spectrometer (Billerica, MA). […] For quantitative peak measurements, spectra were acquired using calibrated 90° pulses, 32,000 complex points, spectral window 0 to −200 ppm, relaxation delay 2.5 s, and 128 averages. […] Relaxation parameters were measured for six middle CF2 peaks of PFOB, spanning ˜10 ppm, which account for 12 out of 17 F atoms in the molecule. […]
# RAW cells = assay: NAO flow cytometry assay for cytotoxicity (apoptosis); format: cell-based, murine; details: 16 h labeling, compared to unlabeled cells
# Method: We investigated the potential effect of P-PFOB labeling on RAW cell viability and phenotype (FIG. 4A-FIG. 4D). To study cytotoxicity, we used a flow cytometry assay for apoptosis (FIGS. 4A-4C) using 10-N-nonyl acridine orange (NAO).^20 As a positive control to induce oxidative stress, 10% ethanol was added to the cell media. […] Side-scatter is routinely used in flow cytometry to distinguish cell types by granularity. Labeled cells often display increased granularity with internalization of PFC droplets. To assay cell phenotype, we used flow cytometry to monitor potential changes in cell surface CD86 expression as a marker for macrophage activation, where increased levels indicated a pro-inflammatory response to label. Lipopolysaccharide (LPS) treatment was used as a positive control to induce a pro-inflammatory phenotype.
# Viability assay. 10-N-nonyl acridine orange (NAO) was obtained from Invitrogen (A1372, Carlsbad, CA). NE labeled and control RAW cells were stained with 100 ng/ml of NAO for 15 minutes followed by washes according to manufacturer's instructions. As a positive control, cells were stressed by incubation with 10% ethanol at 37° C. containing 5% CO2 for 90 minutes before NAO staining. Green fluorescence from NAO dye (emission max at 520 nm) was detected using flow cytometry (LSR Fortessa, BD Biosciences).
# [2] = cited from earlier work
# [3] = 3 T; cited from earlier work
# [4] = 19F R1 relaxation leakage test of metalated emulsions with EDTA at 37 °C; format: physicochemical; details: small fluorinated diketones
# Text: Decrease in relaxation rate ^19F R1 would indicate sequestration of Fe^3+ to the aqueous phase, where it is too far from fluorine-19 nuclei to have an effect on ^19F R1.
# It may be necessary for sufficient stability to use fluorinated diketones with heavily fluorinated substituents that are well-miscible with other fluorinated agents known in the art to be useful for ^19F MRI.
# [5] = Kinetics of emulsion metalation with metal salts (UV-Vis); format: physicochemical
# Method: Strong absorbance of aromatic diketone and its complexes permits facile kinetic investigation of metalation rates. In a typical measurement, emulsion from example 4 was diluted to 70 uM diketone (excess ligand, modeling radiolabeling conditions) into a solution of chosen pH and treated with 10 uM metal cations of relevance to medical imaging, including Fe^3+ (MRI), Cu^2+ (PET), Ga^3+ (PET, SPECT), Sc^3+ (PET), and In^3+ (SPECT). In all cases, UV-Vis spectral changes indicative of metal uptake into the fluorous phase were detected, proportional in magnitude to the amount of metal. For some metals, kinetic analysis was performed. The reaction time course fit well to a pseudo-first-order process with rate constant kobs (Table 1).
# [6] = Intermolecular 19F NMR relaxometry and susceptibility shift in PFOB; format: physicochemical; details: neat PFOB
# Text: We screened the impact of various cations bound to SALTAME 5a and dissolved in PFOB via NMR relaxometry and susceptibility shift measurements (Table 4). Of the period-4 cations tested (V3+, Cr3+, Mn2+, Fe3+, Co2+, Cu2+, Ni2+, Zn2+, Ga3+), only Mn4+, Fe3+, Co3+, and Ga3+ formed stable and separable (by column chromatography) chelates with SALTAME. […] The diamagnetic Ga3+ chelate had little relaxation effects or shift for PFOB. […] Mn4+ changed r1, r2 and susceptibility shift, but to a much lesser extent than Fe3+.
# The longitudinal and transverse ^19F relaxation rates of the Fe3+ chelate, 5a POP, was further evaluated as a function of iron concentration at the clinically-relevant field strength of 3 T yielding relaxivities r1 and r2 of 0.56 s−1 mM−1 and 1.67 s−1 mM−1, respectively, compared to 0.50 s−1 mM−1 and 1.07 s−1 mM−1 values of r1 and r2 at 9.4 T, respectively. […]
# as §1, with “NMR” for “NMR measurements. NMR”
# [7] = final [M3+] 10 uM, final [ligand] 70 uM, pH 2.1 (8 mM HCl)
structure (smiles),measurement,setting,value
"O=Cc1cccc(C(F)(F)C(F)(F)C(F)(F)C(F)(F)C(F)(F)C(F)(F)F)c1O [3b, 3-Perfluorohexyl-salicylaldehyde]",R1 (intramolecular 19F),[1],0.87 ± 0.01 s⁻¹
same,R2 (intramolecular 19F),[1],1.12 ± 0.01 s⁻¹
CCO [ethanol],cytotoxicity (NAO apoptosis assay),RAW cells,display cytotoxicity
"FC1(F)OC(F)(F)C(F)(F)OC(F)(F)C(F)(F)OC(F)(F)C(F)(F)OC(F)(F)C(F)(F)OC1(F)F [PFCE, perfluoro-15-crown-5-ether]",half-life in vivo (body),[2],> 100 days
same,T1,[3],~0.9 ms
C/C(O)=C/C(=O)C(F)(F)C(F)(F)C(F)(F)F [H-hhd],enhancing relaxation,[4],highly effective
same,stability under EDTA competition and cell labeling,[4],not stable enough
CC(C)(C)C(=O)CC(=O)C(F)(F)C(F)(F)C(F)(F)F [H-fod],enhancing relaxation,[4],highly effective
same,stability under EDTA competition and cell labeling,[4],not stable enough
O=C(CC(=O)C(F)(F)F)C(F)(F)F [H-hfp],enhancing relaxation,[4],highly effective
same,stability under EDTA competition and cell labeling,[4],not stable enough
"O=Cc1cc(C(F)(F)C(F)(F)C(F)(F)C(F)(F)C(F)(F)C(F)(F)F)ccc1O [3a, 5-Perfluorohexyl-salicylaldehyde]",R1 (intramolecular 19F),[1],1.33 ± 0.01 s⁻¹
same,R2 (intramolecular 19F),[1],1.75 ± 0.01 s⁻¹
O=C(CC(=O)C(F)(F)F)c1cccs1 [H-tta],enhancing relaxation,[4],highly effective
same,stability under EDTA competition and cell labeling,[4],not stable enough
C/C(O)=C/C(=O)C(F)(F)C(F)(F)C(F)(F)C(F)(F)C(F)(F)C(F)(F)F [H-tdd],enhancing relaxation,[4],highly effective
same,stability under EDTA competition and cell labeling,[4],not stable enough
[Cl][Fe]([Cl])[Cl] [FeCl3],kobs,"[5]; final [M3+] 5 uM, final [ligand] 70 uM, pH 2.1 (8 mM HCl)",0.79 min⁻¹
same,kobs,[5]; [7],0.70 min⁻¹
"FC(F)(F)C(F)(F)C(F)(F)C(F)(F)C(F)(F)C(F)(F)C(F)(F)C(F)(F)Br [PFOB, perfluorooctylbromide]",half-life in vivo (body),[2],3 to 8 days
same,T1,[3],~1200 ms
same,R1,[6]; 3 T,0.79 s⁻¹
same,R1,[6]; 9.4 T,1.4 s⁻¹
[Cl-].[Cl-].[Cl-].[In+3] [InCl3],kobs,"[5]; final [M3+] 2 uM, final [ligand] 14 uM, pH ~5 (unbuffered H2O)",>10 min⁻¹
same,kobs,"[5]; final [M3+] 10 uM, final [ligand] 70 uM, pH 7.4 HEPES",0.0322 min⁻¹
[Cl][Ga]([Cl])[Cl] [GaCl3],kobs,[5]; [7],0.043 min⁻¹
O=C(CC(=O)C(F)(F)F)c1ccccc1 [H-bta],enhancing relaxation,[4],highly effective
same,stability under EDTA competition and cell labeling,[4],not stable enough
